Literature values, collected in PubChem BioAssay AID1259409 (Chemical Carcinogenesis Research Information System (CCRIS), 2018).
Where “and” joins values, the source holds several entries; their conditions need not be identical. Equal entries are not always repeated.

Test system: rodent chemically induced tumor inhibition, incidence and multiplicity
Assay: CCRIS tumor inhibitor studies
Details: Route [Inhibitor]: ORAL, Species: RAT

O=C(O)c1ccc(O)c(O)c1
tumour outcome (control, treated, inhibition, significance) (Carcinogen: 2-AMINO-1-METHYL-6-PHENYLIMIDAZO[4,5-B]PYRIDINE [105650-23-5], Dose [Inhibitor]: 2,000 PPM IN DIET FOR 4 WK BEGINNING WK PRIOR TO FIRST CARCINOGEN DOSE (STUDY DURATION: 25 WK), Strain/Sex: SPRAGUE-DAWLEY/FEMALE, Target Tissue: Type of Lesion: MAMMARY GLAND: FIBROADENOMA OR DUCTAL CARCINOMA, Dose [Carcinogen]: 85 MG/KG BW 2X/WK FOR 4 WK (STUDY DURATION: 25 WK), Promoter: NONE): 63%, 59%, 6%, not significant | tumour outcome (control, treated, inhibition, significance) (Carcinogen: 4-NITROQUINOLINE-1-OXIDE, 56-57-5, Dose [Inhibitor]: 0, 500 PPM IN DIET FOR 10 WK BEGINNING 1 WK PRIOR TO CARCINOGEN TREATMENT (STUDY DURATION: 32 WK), Strain/Sex: F344/MALE, Target Tissue: Type of Lesion: TONGUE: PAPILLOMA, Dose [Carcinogen]: 20 PPM IN DRINKING WATER FOR 8 WK, Promoter: NONE USED): 3/19 (16%), 3/20 (15%), 6%, not significant and 16%, 15%, 6%, not significant | tumour outcome (control, treated, inhibition, significance) (Carcinogen: 4-NITROQUINOLINE-1-OXIDE, 56-57-5, Dose [Inhibitor]: 0, 500 PPM IN DIET FOR 22 WK BEGINNING 1 WK POST CARCINOGEN TREATMENT (STUDY DURATION: 32 WK), Strain/Sex: F344/MALE, Target Tissue: Type of Lesion: TONGUE: PAPILLOMA, Dose [Carcinogen]: 20 PPM IN DRINKING WATER FOR 8 WK, Promoter: NONE USED): 3/19 (16%), 3/21 (14%), 13%, not significant and 16%, 14%, 13%, not significant | tumour outcome (control, treated, inhibition, significance) (Carcinogen: 4-NITROQUINOLINE-1-OXIDE, 56-57-5, Dose [Inhibitor]: 0, 1000 PPM IN DIET FOR 10 WK BEGINNING 1 WK PRIOR TO CARCINOGEN TREATMENT (STUDY DURATION: 32 WK), Strain/Sex: F344/MALE, Target Tissue: Type of Lesion: TONGUE: PAPILLOMA, Dose [Carcinogen]: 20 PPM IN DRINKING WATER FOR 8 WK, Promoter: NONE USED): 3/19 (16%), 2/19 (11%), 31%, not significant and 16%, 11%, 31%, not significant | tumour outcome (control, treated, inhibition, significance) (Carcinogen: 4-NITROQUINOLINE-1-OXIDE, 56-57-5, Dose [Inhibitor]: 0, 1000 PPM IN DIET FOR 22 WK BEGINNING 1 WK POST CARCINOGEN TREATMENT (STUDY DURATION: 32 WK), Strain/Sex: F344/MALE, Target Tissue: Type of Lesion: TONGUE: PAPILLOMA, Dose [Carcinogen]: 20 PPM IN DRINKING WATER FOR 8 WK, Promoter: NONE USED): 3/19 (16%), 4/19 (21%), -31%, not significant | tumour outcome (control, treated, inhibition, significance) (Carcinogen: 4-NITROQUINOLINE-1-OXIDE, 56-57-5, Dose [Inhibitor]: 0, 2000 PPM IN DIET FOR 10 WK BEGINNING 1 WK PRIOR TO CARCINOGEN TREATMENT (STUDY DURATION: 32 WK), Strain/Sex: F344/MALE, Target Tissue: Type of Lesion: TONGUE: PAPILLOMA, Dose [Carcinogen]: 20 PPM IN DRINKING WATER FOR 8 WK, Promoter: NONE USED): 3/19 (16%), 2/21 (10%), 38%, not significant and 16%, 10%, 38%, not significant | tumour outcome (control, treated, inhibition, significance) (Carcinogen: 4-NITROQUINOLINE-1-OXIDE, 56-57-5, Dose [Inhibitor]: 0, 2000 PPM IN DIET FOR 22 WK BEGINNING 1 WK POST CARCINOGEN TREATMENT (STUDY DURATION: 32 WK), Strain/Sex: F344/MALE, Target Tissue: Type of Lesion: TONGUE: PAPILLOMA, Dose [Carcinogen]: 20 PPM IN DRINKING WATER FOR 8 WK, Promoter: NONE USED): 3/19 (16%), 2/20 (10%), 38%, not significant and 16%, 10%, 38%, not significant | tumour outcome (control, treated, inhibition, significance) (Carcinogen: AZOXYMETHANE, 24843-45-2, Dose [Inhibitor]: 0, 500 PPM IN DIET FOR 28 WK BEGINNING 1 WK POST CARCINOGEN TREATMENT (STUDY DURATION: 32 WK), Strain/Sex: F344/MALE, Target Tissue: Type of Lesion: COLON: ADENOMA, Dose [Carcinogen]: 15 MG/KG BW 1/WK FOR 3 WK, Promoter: NONE USED): 10%, 15%, -50%, not significant | tumour outcome (control, treated, inhibition, significance) (Carcinogen: AZOXYMETHANE, 25843-45-2, Dose [Inhibitor]: 0, 250 PPM IN DIET FOR 4 WK BEGINNING 1 WK PRIOR TO CARCINOGEN TREATMENT (STUDY DURATION: 32 WK), Strain/Sex: F344/MALE, Target Tissue: Type of Lesion: COLON: ADENOCARCINOMA, Dose [Carcinogen]: 15 MG/KG BW 1/WK FOR 3 WK, Promoter: NONE USED): 75%, 40%, 47%, not significant | tumour outcome (control, treated, inhibition, significance) (Carcinogen: AZOXYMETHANE, 25843-45-2, Dose [Inhibitor]: 0, 250 PPM IN DIET FOR 4 WK BEGINNING 1 WK PRIOR TO CARCINOGEN TREATMENT (STUDY DURATION: 32 WK), Strain/Sex: F344/MALE, Target Tissue: Type of Lesion: COLON: ADENOMA, Dose [Carcinogen]: 15 MG/KG BW 1/WK FOR 3 WK, Promoter: NONE USED): 10%, 5%, 50%, not significant | tumour outcome (control, treated, inhibition, significance) (Carcinogen: AZOXYMETHANE, 25843-45-2, Dose [Inhibitor]: 0, 250 PPM IN DIET FOR 4 WK BEGINNING 1 WK PRIOR TO CARCINOGEN TREATMENT (STUDY DURATION: 32 WK), Strain/Sex: F344/MALE, Target Tissue: Type of Lesion: LARGE INTESTINE: ADENOCARCINOMA, Dose [Carcinogen]: 15 MG/KG BW 1/WK FOR 3 WK, Promoter: NONE USED): 15/20 (75%), 8/20 (40%), 47%, not significant | tumour outcome (control, treated, inhibition, significance) (Carcinogen: AZOXYMETHANE, 25843-45-2, Dose [Inhibitor]: 0, 250 PPM IN DIET FOR 4 WK BEGINNING 1 WK PRIOR TO CARCINOGEN TREATMENT (STUDY DURATION: 32 WK), Strain/Sex: F344/MALE, Target Tissue: Type of Lesion: LARGE INTESTINE: ADENOMA, Dose [Carcinogen]: 15 MG/KG BW 1/WK FOR 3 WK, Promoter: NONE USED): 2/20 (10%), 1/20 (5%), 50%, not significant | tumour outcome (control, treated, inhibition, significance) (Carcinogen: AZOXYMETHANE, 25843-45-2, Dose [Inhibitor]: 0, 250 PPM IN DIET FOR 4 WK BEGINNING 1 WK PRIOR TO CARCINOGEN TREATMENT (STUDY DURATION: 32 WK), Strain/Sex: F344/MALE, Target Tissue: Type of Lesion: SMALL INTESTINE: ADENOCARCINOMA, Dose [Carcinogen]: 15 MG/KG BW 1/WK FOR 3 WK, Promoter: NONE USED): 6/20 (30%), 7/20 (35%), -17%, not significant | tumour outcome (control, treated, inhibition, significance) (Carcinogen: AZOXYMETHANE, 25843-45-2, Dose [Inhibitor]: 0, 250 PPM IN DIET FOR 4 WK BEGINNING 1 WK PRIOR TO CARCINOGEN TREATMENT (STUDY DURATION: 32 WK), Strain/Sex: F344/MALE, Target Tissue: Type of Lesion: SMALL INTESTINE: ADENOMA, Dose [Carcinogen]: 15 MG/KG BW 1/WK FOR 3 WK, Promoter: NONE USED): 1/20 (5%), 0/20 (0%), 100%, not significant | tumour outcome (control, treated, inhibition, significance) (Carcinogen: AZOXYMETHANE, 25843-45-2, Dose [Inhibitor]: 0, 250 PPM IN DIET FOR 28 WK BEGINNING 1 WK POST CARCINOGEN TREATMENT (STUDY DURATION: 32 WK), Strain/Sex: F344/MALE, Target Tissue: Type of Lesion: COLON: ADENOCARCINOMA, Dose [Carcinogen]: 15 MG/KG BW 1/WK FOR 3 WK, Promoter: NONE USED): 75%, 40%, 47%, not significant | tumour outcome (control, treated, inhibition, significance) (Carcinogen: AZOXYMETHANE, 25843-45-2, Dose [Inhibitor]: 0, 250 PPM IN DIET FOR 28 WK BEGINNING 1 WK POST CARCINOGEN TREATMENT (STUDY DURATION: 32 WK), Strain/Sex: F344/MALE, Target Tissue: Type of Lesion: COLON: ADENOMA, Dose [Carcinogen]: 15 MG/KG BW 1/WK FOR 3 WK, Promoter: NONE USED): 10%, 20%, -100%, not significant | tumour outcome (control, treated, inhibition, significance) (Carcinogen: AZOXYMETHANE, 25843-45-2, Dose [Inhibitor]: 0, 250 PPM IN DIET FOR 28 WK BEGINNING 1 WK POST CARCINOGEN TREATMENT (STUDY DURATION: 32 WK), Strain/Sex: F344/MALE, Target Tissue: Type of Lesion: LARGE INTESTINE: ADENOCARCINOMA, Dose [Carcinogen]: 15 MG/KG BW 1/WK FOR 3 WK, Promoter: NONE USED): 15/20 (75%), 8/20 (40%), 47%, not significant | tumour outcome (control, treated, inhibition, significance) (Carcinogen: AZOXYMETHANE, 25843-45-2, Dose [Inhibitor]: 0, 250 PPM IN DIET FOR 28 WK BEGINNING 1 WK POST CARCINOGEN TREATMENT (STUDY DURATION: 32 WK), Strain/Sex: F344/MALE, Target Tissue: Type of Lesion: LARGE INTESTINE: ADENOMA, Dose [Carcinogen]: 15 MG/KG BW 1/WK FOR 3 WK, Promoter: NONE USED): 2/20 (10%), 4/20 (20%), -100%, not significant | tumour outcome (control, treated, inhibition, significance) (Carcinogen: AZOXYMETHANE, 25843-45-2, Dose [Inhibitor]: 0, 250 PPM IN DIET FOR 28 WK BEGINNING 1 WK POST CARCINOGEN TREATMENT (STUDY DURATION: 32 WK), Strain/Sex: F344/MALE, Target Tissue: Type of Lesion: SMALL INTESTINE: ADENOCARCINOMA, Dose [Carcinogen]: 15 MG/KG BW 1/WK FOR 3 WK, Promoter: NONE USED): 6/20 (30%), 5/20 (25%), 17%, not significant | tumour outcome (control, treated, inhibition, significance) (Carcinogen: AZOXYMETHANE, 25843-45-2, Dose [Inhibitor]: 0, 250 PPM IN DIET FOR 28 WK BEGINNING 1 WK POST CARCINOGEN TREATMENT (STUDY DURATION: 32 WK), Strain/Sex: F344/MALE, Target Tissue: Type of Lesion: SMALL INTESTINE: ADENOMA, Dose [Carcinogen]: 15 MG/KG BW 1/WK FOR 3 WK, Promoter: NONE USED): 1/20 (5%), 0/20 (0%), 100%, not significant
